In patent publication US20060282906A1, “Non-transgenic rodent model of Alzheimer's disease” (priority 2005, published 2006):
Marks after values point to notes of the source that are not given here.

Columns and labels:
rats = experiment: Barnes circular platform test; assay type: in vivo, rat
Description: All rats were anesthetized using 40 mg/kg of pentobarbital (Somnotol; MTC Pharmaceuticals, Cambridge, Ontario) intraperitoneally. Body temperature was maintained at 37° C. Aβ(25-35) (50 nmol in 10 μL of saline) was injected bilaterally into the lateral ventricles. Aβ(25-35) was prepared according to established methods (Sigurdsson, et al. (1997) supra). […] (1997) supra). […] After wound suture, all rats received […] of buprenorphine intramuscularly and were allowed to recover from surgery for 7 days. Learning and memory deficits were assessed using the Barnes circular platform. There are twenty holes evenly located along the border of circular platform with a hidden escape box beneath one of the holes. The circular platform is equipped with colored cues on the surrounding wall. A bright light combined with wind from a fan hung on the ceiling above the platform provides the incentive for the rats to find the hidden box and enter the escape hole. During each trial, the rats were initially placed in the center of the platform under an inverted box, then the box was lifted up and the rat is allowed to find the hole for up to 4 minutes. The latency (time to enter the escape hole) was recorded during the trial. There was a training period (trials 1-14) performed at day −7 to day −1 before surgery (day 0). PDTC or vehicle treatment was given 30 minutes before Aβ(25-35) injections and from days 1 to 7 post-surgery. Spatial memory was then tested on day 8 (trial 15) with the escape hole placed in the same location. Spatial learning was examined by re-testing (re-acquisition) from days 9 to 15 (trials 16-29) with the escape box relocated at […] from the original location. Digital photographs were taken using a light microscope (Leitz Diaplan). […] Also, relative optical density measurements and numbers of stained cells or accumulations were measured in entire brain areas for quantitative analysis and statistically analyzed with ANOVA and Tukey post hoc test with a significance level of P<0.05. […] The staircase data are expressed as the mean±SEM. […] Data are expressed as mean±SEM. […]

Male Wistar rats [1] = experiment: Immunohistochemistry of rat brain sections, grading scale of staining size and intensity; assay type: in vivo; design: key to Effect of Triflusal on NKκB(p65) immunostaining / Effect of Triflusal on COX-2 immunostaining / Effect of Triflusal on GFAP immunostaining / Effect of Triflusal on OX-6 immunostaining / Effect of Triflusal on APP immunostaining / Effect of Triflusal on Tau-2 immunostaining / Effect of Triflusal on TNFα immunostaining / Effect of Triflusal on Cas-3 immunostaining: −: no effect; ↓: moderate reduction; ↓↓: strong reduction
Description: (§1) Male Wistar rats (250 to 300 grams; Charles River, Montreal, Quebec) were divided into 4 groups: intracerebroventricular injections of Aβ(25-35) (BACHEM, Torrance, Calif.); endothelin injections into the right striatum; both Aβ(25-35) and striatal endothelin injections; and sham procedures. The Aβ(25-35) fragment was used to reduce the possibility of rapid coagulation and to allow diffusion of the peptide into the brain.
(§2) All rats were anesthetized using 40 mg/kg of pentobarbital (Somnotol; MTC Pharmaceuticals, Cambridge, Ontario) intraperitoneally. Body temperature was maintained at 37° C. Aβ(25-35) (50 nmol in 10 μL of saline) was injected bilaterally into the lateral ventricles. Aβ(25-35) was prepared according to established methods (Sigurdsson, et al. (1997) supra). Aβ(25-35) (50 nmol in 10 μL of saline at a rate of 1 μL/minute) was injected bilaterally into the lateral ventricles via a stainless-steel cannula (23-gauge; anterior/posterior −0.8, medial/lateral ±1.4, and dorsal/ventral −4.0 below dura). Two endothelin injections (6 pmol in 3 μL of saline), 1 mm apart, were made into the right striatum (Sigurdsson, et al. (1997) supra). Sham procedures involved all the surgical steps without injections of Aβ(25-35) or endothelin. After wound suture, all rats received 40 mg/kg of buprenorphine intramuscularly and were allowed to recover from surgery for 7 days.
(§3) Twenty-one days after surgery, all animals were euthanized via pentobarbital overdose and perfused transaortically first with saline followed by 4% formaldehyde (pH 7.4). The brains were removed and cryoprotected in 30% sucrose for 36 hours at 4° C. Coronal sections (30 pm) were cut using a cryostat.
(§4) Free-floating sections from rat brains (n=5 for each group) were treated with 0.03% hydrogen peroxide and blocked with 3 mL of horse or rabbit serum (VECTASTAIN® Elite, Vector Laboratories, Burlingame, Calif.). The following primary antibodies were diluted in filtered phosphate-buffered saline: APPa4 mouse monoclonal (Chemicon International Inc, Temecula, Calif.; 1:1000), GFAP mouse monoclonal (Sigma-Aldrich, St Louis, Mo.; 1:1000), OX-6 mouse monoclonal (Serotec, Inc., Raleigh, N.C.; 1:1000), Tau-2 mouse monoclonal (Sigma-Aldrich, St Louis, Mo.; 1:10000), NFκB(p65) goat polyclonal (Santa Cruz Biotechnologies, Santa Cruz, Calif.; 1:1000), IL-1β goat polyclonal (Santa Cruz Biotechnologies, Santa Cruz, Calif.; 1:1000), and TNF-α-M18 goat polyclonal (Santa Cruz Biotechnologies, Santa Cruz, Calif.; 1:1000). APP-, Tau-2-, GFAP-, and OX-6-stained sections were incubated with 3 mL of horse biotinylated anti-mouse secondary antibody and horse serum. NFκB(p65), IL-1β, and TNF-α-stained sections were incubated with 3 mL of biotinylated rabbit anti-goat secondary antibody and rabbit serum. Sections were then incubated in 3 mL of avidin-biotin complex followed by 0.05% diaminobenzidine. Sections were washed, air-dried, cleared in xylene, and cover-slipped. Brains to be compared were processed at the same time using the same solutions to reduce variability in immunostaining caused by separate processing.
(§5) Digital photographs were taken using a light microscope (Leitz Diaplan). An investigator was blinded to the identification of the rat sections while analysis was being performed. All immunohistochemical data that were compared was processed at the same time to reduce any variation caused by differences of intensity. A grading scale was based on both observable size and intensity of staining (n=5 for each group). Also, relative optical density measurements and numbers of stained cells or accumulations were measured in entire brain areas for quantitative analysis and statistically analyzed with ANOVA and Tukey post hoc test with a significance level of P<0.05.

Male Wistar rats [2] = experiment: Quantitative immunohistochemistry: relative optical density and numbers of stained cells or accumulations; assay type: in vivo, rat; conditions: Trifusal treatment (brackets)
Description: as §1, §2, §3, §4, §5

[3] = Corpus Callosum, Aβ-Endothelin rats
[4] = Hippocampus, Aβ-Endothelin rats
[5] = Hypothalamus, Aβ-Endothelin rats
[6] = Striatum (right), Aβ-Endothelin rats
[7] = Striatum (right), Endothelin rats
[8] = Thalamus (right), Aβ-Endothelin rats
[9] = Thalamus (right), Endothelin rats
[10] = Left Hippocampus, Endothelin rats
[11] = Right Hippocampus, Aβ/Endo rats
[12] = Right Hippocampus, Endothelin rats

S=C(S)N1CCCC1 [PDTC, pyrrolidine dithiocarbamate]
Effect on Aβ(25-35) induced increases in latency (rats; 100 mg/kg 30 minutes before Aβ(25-35) injections and 7 days post-surgery, trial 15 (day 8) vs trial 14 (day −1)): prevented the Aβ(25-35) induced increases in latency
test response (latency) vs Aβ(25-35) group with vehicle treatment (rats; Aβ(25-35) group treated with PDTC, P<0.05, not significantly different from sham groups): significantly less

CC(=O)Oc1cc(C(F)(F)F)ccc1C(=O)O [Triflusal]
Effect of Triflusal on APP immunostaining (Male Wistar rats [1]; Corpus Callosum, Aβ rats): ↓↓
Effect of Triflusal on COX-2 immunostaining (Male Wistar rats [1]; Corpus Callosum, Aβ rats): ↓↓
Effect of Triflusal on GFAP immunostaining (Male Wistar rats [1]; Corpus Callosum, Aβ rats): ↓↓
Effect of Triflusal on NKκB(p65) immunostaining (Male Wistar rats [1]; Corpus Callosum, Aβ rats): ↓↓
Effect of Triflusal on OX-6 immunostaining (Male Wistar rats [1]; Corpus Callosum, Aβ rats): ↓↓
Effect of Triflusal on TNFα immunostaining (Male Wistar rats [1]; Corpus Callosum, Aβ rats): ↓↓
Effect of Triflusal on Tau-2 immunostaining (Male Wistar rats [1]; Corpus Callosum, Aβ rats): ↓↓
Effect of Triflusal on APP immunostaining (Male Wistar rats [1]; [3]): −
Effect of Triflusal on COX-2 immunostaining (Male Wistar rats [1]; [3]): ↓
Effect of Triflusal on GFAP immunostaining (Male Wistar rats [1]; [3]): −
Effect of Triflusal on NKκB(p65) immunostaining (Male Wistar rats [1]; [3]): ↓
Effect of Triflusal on OX-6 immunostaining (Male Wistar rats [1]; [3]): ↓
Effect of Triflusal on TNFα immunostaining (Male Wistar rats [1]; [3]): −
Effect of Triflusal on Tau-2 immunostaining (Male Wistar rats [1]; [3]): −
Effect of Triflusal on GFAP immunostaining (Male Wistar rats [1]; Corpus Callosum, Endothelin rats): −
Effect of Triflusal on APP immunostaining (Male Wistar rats [1]; Cortex, Aβ rats): ↓↓
Effect of Triflusal on COX-2 immunostaining (Male Wistar rats [1]; Cortex, Aβ rats): ↓↓
Effect of Triflusal on GFAP immunostaining (Male Wistar rats [1]; Cortex, Aβ rats): −
Effect of Triflusal on NKκB(p65) immunostaining (Male Wistar rats [1]; Cortex, Aβ rats): ↓
Effect of Triflusal on OX-6 immunostaining (Male Wistar rats [1]; Cortex, Aβ rats): ↓
Effect of Triflusal on TNFα immunostaining (Male Wistar rats [1]; Cortex, Aβ rats): ↓
Effect of Triflusal on Tau-2 immunostaining (Male Wistar rats [1]; Cortex, Aβ rats): ↓↓
Effect of Triflusal on APP immunostaining (Male Wistar rats [1]; Cortex, Aβ-Endothelin rats): −
Effect of Triflusal on COX-2 immunostaining (Male Wistar rats [1]; Cortex, Aβ-Endothelin rats): ↓
Effect of Triflusal on GFAP immunostaining (Male Wistar rats [1]; Cortex, Aβ-Endothelin rats): −
Effect of Triflusal on NKκB(p65) immunostaining (Male Wistar rats [1]; Cortex, Aβ-Endothelin rats): −
Effect of Triflusal on OX-6 immunostaining (Male Wistar rats [1]; Cortex, Aβ-Endothelin rats): −
Effect of Triflusal on TNFα immunostaining (Male Wistar rats [1]; Cortex, Aβ-Endothelin rats): ↓
Effect of Triflusal on Tau-2 immunostaining (Male Wistar rats [1]; Cortex, Aβ-Endothelin rats): −
Effect of Triflusal on GFAP immunostaining (Male Wistar rats [1]; Cortex, Endothelin rats): −
Effect of Triflusal on APP immunostaining (Male Wistar rats [1]; Hippocampus, Aβ rats): ↓
Effect of Triflusal on COX-2 immunostaining (Male Wistar rats [1]; Hippocampus, Aβ rats): ↓
Effect of Triflusal on GFAP immunostaining (Male Wistar rats [1]; Hippocampus, Aβ rats): −
Effect of Triflusal on NKκB(p65) immunostaining (Male Wistar rats [1]; Hippocampus, Aβ rats): ↓
Effect of Triflusal on OX-6 immunostaining (Male Wistar rats [1]; Hippocampus, Aβ rats): ↓
Effect of Triflusal on Tau-2 immunostaining (Male Wistar rats [1]; Hippocampus, Aβ rats): ↓
Effect of Triflusal on APP immunostaining (Male Wistar rats [1]; [4]): −
Effect of Triflusal on COX-2 immunostaining (Male Wistar rats [1]; [4]): −
Effect of Triflusal on GFAP immunostaining (Male Wistar rats [1]; [4]): −
Effect of Triflusal on NKκB(p65) immunostaining (Male Wistar rats [1]; [4]): −
Effect of Triflusal on OX-6 immunostaining (Male Wistar rats [1]; [4]): −
Effect of Triflusal on Tau-2 immunostaining (Male Wistar rats [1]; [4]): −
Effect of Triflusal on GFAP immunostaining (Male Wistar rats [1]; Hippocampus, Endothelin rats): −
Effect of Triflusal on APP immunostaining (Male Wistar rats [1]; Hypothalamus, Aβ rats): ↓
Effect of Triflusal on NKκB(p65) immunostaining (Male Wistar rats [1]; Hypothalamus, Aβ rats): ↓↓
Effect of Triflusal on TNFα immunostaining (Male Wistar rats [1]; Hypothalamus, Aβ rats): ↓↓
Effect of Triflusal on APP immunostaining (Male Wistar rats [1]; [5]): −
Effect of Triflusal on NKκB(p65) immunostaining (Male Wistar rats [1]; [5]): ↓
Effect of Triflusal on TNFα immunostaining (Male Wistar rats [1]; [5]): ↓
Effect of Triflusal on GFAP immunostaining (Male Wistar rats [1]; Striatum (right), Aβ rats): −
Effect of Triflusal on APP immunostaining (Male Wistar rats [1]; [6]): ↓
Effect of Triflusal on COX-2 immunostaining (Male Wistar rats [1]; [6]): ↓
Effect of Triflusal on GFAP immunostaining (Male Wistar rats [1]; [6]): −
Effect of Triflusal on NKκB(p65) immunostaining (Male Wistar rats [1]; [6]): ↓
Effect of Triflusal on OX-6 immunostaining (Male Wistar rats [1]; [6]): ↓
Effect of Triflusal on TNFα immunostaining (Male Wistar rats [1]; [6]): ↓
Effect of Triflusal on APP immunostaining (Male Wistar rats [1]; [7]): ↓↓
Effect of Triflusal on COX-2 immunostaining (Male Wistar rats [1]; [7]): ↓↓
Effect of Triflusal on Cas-3 immunostaining (Male Wistar rats [1]; [7]): ↓
Effect of Triflusal on GFAP immunostaining (Male Wistar rats [1]; [7]): −
Effect of Triflusal on NKκB(p65) immunostaining (Male Wistar rats [1]; [7]): ↓
Effect of Triflusal on OX-6 immunostaining (Male Wistar rats [1]; [7]): ↓↓
Effect of Triflusal on TNFα immunostaining (Male Wistar rats [1]; [7]): ↓
Effect of Triflusal on OX-6 immunostaining (Male Wistar rats [1]; Thalamus (right), Aβ rats): −
Effect of Triflusal on TNFα immunostaining (Male Wistar rats [1]; Thalamus (right), Aβ rats): −
Effect of Triflusal on OX-6 immunostaining (Male Wistar rats [1]; [8]): −
Effect of Triflusal on TNFα immunostaining (Male Wistar rats [1]; [8]): −
Effect of Triflusal on OX-6 immunostaining (Male Wistar rats [1]; [9]): −
Effect of Triflusal on TNFα immunostaining (Male Wistar rats [1]; [9]): −
APP Accumulation (Male Wistar rats [2]; Left Cortex, Aβ rats): (12.5 ± 2.6)^x
APP Accumulation (Male Wistar rats [2]; Left Cortex, Aβ/Endo rats): 64.5 ± 10.2)
APP Accumulation (Male Wistar rats [2]; Left Cortex, Endothelin rats): (7.3 ± 1.3)
APP Accumulation (Male Wistar rats [2]; Left Cortex, Sham rats): (7.3 ± 2.3)
GFAP Intensity (Male Wistar rats [2]; Left Hippocampus, Aβ rats): (166.8 ± 9.1)
OX6 Intensity (Male Wistar rats [2]; Left Hippocampus, Aβ rats): (109.8 ± 6.8)^a
GFAP Intensity (Male Wistar rats [2]; Left Hippocampus, Aβ/Endo rats): (188.9 ± 4.4)
OX6 Intensity (Male Wistar rats [2]; Left Hippocampus, Aβ/Endo rats): (149.0 ± 7.1)
GFAP Intensity (Male Wistar rats [2]; [10]): (148.8 ± 4.5)
OX6 Intensity (Male Wistar rats [2]; [10]): (106.8 ± 6.4)
GFAP Intensity (Male Wistar rats [2]; Left Hippocampus, Sham rats): (150.8 ± 5.5)
OX6 Intensity (Male Wistar rats [2]; Left Hippocampus, Sham rats): (97.9 ± 2.0)
APP Accumulation (Male Wistar rats [2]; Right Cortex, Aβ rats): (11.0 ± 2.1)^x
APP Accumulation (Male Wistar rats [2]; Right Cortex, Aβ/Endo rats): (85.8 ± 16.1)
APP Accumulation (Male Wistar rats [2]; Right Cortex, Endothelin rats): (13.3 ± 2.1)
APP Accumulation (Male Wistar rats [2]; Right Cortex, Sham rats): (5.0 ± 2.7)
GFAP Intensity (Male Wistar rats [2]; Right Hippocampus, Aβ rats): (164.2 ± 10.1)
OX6 Intensity (Male Wistar rats [2]; Right Hippocampus, Aβ rats): (110.8 ± 4.6)^x
GFAP Intensity (Male Wistar rats [2]; [11]): (188.3 ± 8.2)
OX6 Intensity (Male Wistar rats [2]; [11]): (149.4 ± 7.4)^x
GFAP Intensity (Male Wistar rats [2]; [12]): (150.1 ± 3.6)^x
OX6 Intensity (Male Wistar rats [2]; [12]): (97.3 ± 4.5)^x
GFAP Intensity (Male Wistar rats [2]; Right Hippocampus, Sham rats): (152.5 ± 7.9)
OX6 Intensity (Male Wistar rats [2]; Right Hippocampus, Sham rats): (93.4 ± 1.4)
